Data from patent US10508104B2, “6-hydroxy-5-(phenyl/heteroarylsulfonyl)pyrimidin-4(1H)-one as APJ agonists” (Bristol-Myers Squibb Company, priority 2016, dated 2019).

Target: human APJ receptor (Homo sapiens (Human), UniProt P35414)
Test: Intracellular cAMP accumulation assay (APJ hcAMP, HTRF)
Type: cell-based
Settings: human APJ, intracellular cAMP accumulation; read-out: Human APJ cAMP EC50 Potency range
Procedure: Intracellular cAMP Accumulation Assay
HEK293 cells stably expressing human APJ receptor were used to assess the activity of compounds. Cultured cells were detached and resuspended in the cAMP Homogeneous Time-Resolved Fluorescence (HTRF) assay buffer (Cisbio cat; #62AM4PEJ). The assay was performed in 384-well assay plates (Perkin-Elmer; cat #6008289) according to assay protocol provided by the manufacturer. Serial dilutions of a compound together with assay buffer containing […] and 2 μM forskolin were added to each well containing 5,000 cells and incubated for 30 minutes at room temperature. Subsequently, cAMP D2 reagent was added in the lysis buffer followed by the EuK antibody (Cisbio; cat #62AM4PEJ) and incubated for 60 min. The fluorescence emission ratio was measured using fluorometer. The intracellular cAMP concentrations (compound-stimulated inhibition of forskolin-mediated cAMP production) were calculated by extrapolation from a standard curve using known cAMP concentrations. The EC50 values were obtained by fitting the data to a sigmoidal concentration-response curve with variable slope.
The EC50 value of each compound is presented at the end of the example description.
The biological activity of the exemplified compounds of this invention determined by the assay described above is shown at the end of each example.

Sequence of human APJ receptor (P35414 whole entry): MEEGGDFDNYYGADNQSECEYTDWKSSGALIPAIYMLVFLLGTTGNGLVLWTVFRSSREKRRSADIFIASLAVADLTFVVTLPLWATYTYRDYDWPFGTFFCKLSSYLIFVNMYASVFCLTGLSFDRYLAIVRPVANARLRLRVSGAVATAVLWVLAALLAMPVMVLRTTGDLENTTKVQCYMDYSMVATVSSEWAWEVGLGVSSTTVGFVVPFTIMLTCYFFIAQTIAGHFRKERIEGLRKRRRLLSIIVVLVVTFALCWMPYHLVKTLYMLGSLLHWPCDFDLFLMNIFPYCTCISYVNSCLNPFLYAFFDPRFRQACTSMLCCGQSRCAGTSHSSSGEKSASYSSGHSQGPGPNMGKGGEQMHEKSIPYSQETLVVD

Question: For CCCCc1nc(=O)c(S(=O)(=O)c2ccc(-c3cccc(OCOC)c3)cc2)c(O)n1-c1c(OC)cccc1OC [Example 45, 2-butyl-1-(2,6-dimethoxyphenyl)-6-hydroxy-5-{4-[3-(methoxymethoxy)phe-nyl]benzenesulfonyl}-1,4-dihydropyrimidin-4-one], which EC50 is on record?
Answer: 0.01 to 10 nM

Question: For CCCCc1nc(=O)c(S(=O)(=O)c2ccc(-c3ccccc3C#N)cc2)c(O)n1-c1c(OC)cccc1OC [Example 46, 2-(4-{[2-butyl-1-(2,6-dimethoxyphenyl)-6-hydroxy-4-oxo-1,4-dihydropyrimidin-5-yl]sulfonyl}phenyl) benzonitrile], which EC50 is on record?
Answer: 0.01 to 10 nM

Question: Which EC50 does the source give for CCCCc1nc(=O)c(S(=O)(=O)c2ccc(-c3cccc(C#N)c3)cc2)c(O)n1-c1c(OC)cccc1OC [Example 47, 3-(4-{[2-butyl-1-(2,6-dimethoxyphenyl)-6-hydroxy-4-oxo-1,4-dihydropyrimidin-5-yl]sulfonyl}phenyl) benzonitrile] here?
Answer: 0.01 to 10 nM

Question: For CCCCc1nc(=O)c(S(=O)(=O)c2ccc(-c3ccc(NC(=O)OC)cc3)cc2)c(O)n1-c1c(OC)cccc1OC [Example 48, methyl N-[4-(4-{[2-butyl-1-(2,6-dimethoxyphenyl)-6-hydroxy-4-oxo-1,4-dihydropyrimidin-5-yl]sulfonyl}phenyl)phe-nyl]carbamate], which EC50 is on record?
Answer: 0.01 to 10 nM

Question: Which EC50 does the source give for CCCCc1nc(=O)c(S(=O)(=O)c2ccc(-c3ccccc3COC)cc2)c(O)n1-c1c(OC)cccc1OC [Example 49, 2-butyl-1-(2,6-dimethoxyphenyl)-6-hydroxy-5-{4-[2-(methoxymethyl)phenyl]benzenesulfonyl}-1,4-dihydropyrimidin-4-one] here?
Answer: 0.01 to 10 nM

Question: CCCCc1nc(=O)c(S(=O)(=O)c2ccc(-c3cncc(F)c3)cc2)c(O)n1-c1c(OC)cccc1OC [Example 50, 2-butyl-1-(2,6-dimethoxyphenyl)-5-[4-(5-fluoropyridin-3-yl)benzenesulfonyl]-6-hydroxy-1,4-dihydropyrimidin-4-one] was tested. Which EC50 did it give?
Answer: 0.01 to 10 nM

Question: Which EC50 does the source give for CCCCc1nc(=O)c(S(=O)(=O)c2ccc(-c3ccnc(NC(=O)C4CC4)c3)cc2)c(O)n1-c1c(OC)cccc1OC [Example 51, N-[4-(4-{[2-butyl-1-(2,6-dimethoxyphenyl)-6-hydroxy-4-oxo-1,4-dihydropyrimidin-5-yl]sulfonyl}phenyl)pyri-din-2-yl]cyclopropane-carboxamide] here?
Answer: 0.01 to 10 nM

Question: With CCCCc1nc(=O)c(S(=O)(=O)c2ccc(-c3cccc4cnccc34)cc2)c(O)n1-c1c(OC)cccc1OC [Example 52, 2-butyl-1-(2,6-dimethoxyphenyl)-6-hydroxy-5-[4-(isoquinolin-5-yl)benzenesulfonyl]-1,4-dihydropyrimidin-4-one] as the compound, how does the EC50 read?
Answer: 0.01 to 10 nM

Question: How did the EC50 turn out when CCCCc1nc(=O)c(S(=O)(=O)c2ccc(-c3ccc4c(ccn4C)c3)cc2)c(O)n1-c1c(OC)cccc1OC [Example 53, 2-butyl-1-(2,6-dimethoxyphenyl)-6-hydroxy-5-[4-(1-methyl-1H-indol-5-yl)benzenesulfonyl]-1,4-dihydropyrimidin-4-one] was run?
Answer: 0.01 to 10 nM

Question: CCCCc1nc(=O)c(S(=O)(=O)c2ccc(-c3ccc4ncccc4c3)cc2)c(O)n1-c1c(OC)cccc1OC [Example 54, 2-butyl-1-(2,6-dimethoxyphenyl)-6-hydroxy-5-[4-(quinolin-6-yl)benzenesulfonyl]-1,4-dihydropyrimidin-4-one] was tested. Which EC50 did it give?
Answer: 0.01 to 10 nM

Question: CCCCc1nc(=O)c(S(=O)(=O)c2ccc(-c3ccc(OC(F)(F)F)cc3)cc2)c(O)n1-c1c(OC)cccc1OC [Example 55, 2-butyl-1-(2,6-dimethoxyphenyl)-6-hydroxy-5-{4-[4-(trifluoromethoxy)phenyl]benzenesulfonyl}-1,4-dihydropyrimidin-4-one] was tested. Which EC50 did it give?
Answer: 0.01 to 10 nM

Question: For CCCCc1nc(=O)c(S(=O)(=O)c2ccc(-c3cc(Cl)cc(Cl)c3)cc2)c(O)n1-c1c(OC)cccc1OC [Example 56, 2-butyl-5-[4-(3,5-dichlorophenyl)benzenesulfonyl]-1-(2,6-dimethoxyphenyl)-6-hydroxy-1,4-dihydropyrimidin-4-one], which EC50 is on record?
Answer: 0.01 to 10 nM

Question: With CCCCc1nc(=O)c(S(=O)(=O)c2ccc(-c3ccccc3F)cc2)c(O)n1-c1c(OC)cccc1OC [Example 57, 2-butyl-1-(2,6-dimethoxyphenyl)-5-[4-(2-fluorophenyl)benzene-sulfonyl]-6-hydroxy-1,4-dihydropyrimidin-4-one] as the compound, how does the EC50 read?
Answer: 0.01 to 10 nM

Question: With CCCCc1nc(=O)c(S(=O)(=O)c2ccc(-c3ccc(F)c(F)c3)cc2)c(O)n1-c1c(OC)cccc1OC [Example 58, 2-butyl-5-[4-(3,4-difluorophenyl)benzenesulfonyl]-1-(2,6-dimethoxyphenyl)-6-hydroxy-1,4-dihydropyrimidin-4-one] as the compound, how does the EC50 read?
Answer: 0.01 to 10 nM

Question: With CCCCc1nc(=O)c(S(=O)(=O)c2ccc(-c3ccc(C)c(C)c3)cc2)c(O)n1-c1c(OC)cccc1OC [Example 59, 2-butyl-1-(2,6-dimethoxyphenyl)-5-[4-(3,4-dimethylphenyl)benzene-sulfonyl]-6-hydroxy-1,4-dihydropyrimidin-4-one] as the compound, how does the EC50 read?
Answer: 0.01 to 10 nM

Question: Which EC50 does the source give for CCCCc1nc(=O)c(S(=O)(=O)c2ccc(-c3cccnc3C)cc2)c(O)n1-c1c(OC)cccc1OC [Example 60, 2-butyl-1-(2,6-dimethoxyphenyl)-6-hydroxy-5-[4-(2-methylpyridin-3-yl)benzenesulfonyl]-1,4-dihydropyrimidin-4-one] here?
Answer: 0.01 to 10 nM

Question: CCCCc1nc(=O)c(S(=O)(=O)c2ccc(-c3ccc(Cl)nc3C)cc2)c(O)n1-c1c(OC)cccc1OC [Example 61, 2-butyl-5-[4-(6-chloro-2-methylpyridin-3-yl)benzenesulfonyl]-1-(2,6-dimethoxyphenyl)-6-hydroxy-1,4-dihydropyrimidin-4-one] was tested. Which EC50 did it give?
Answer: 0.01 to 10 nM

Question: How did the EC50 turn out when CCCCc1nc(=O)c(S(=O)(=O)c2ccc(C)cc2)c(O)n1-c1c(OC)cccc1OC [Example 62, 2-butyl-1-(2,6-dimethoxyphenyl)-6-hydroxy-5-(4-methylbenzenesulfonyl)-1,4-dihydropyrimidin-4-one] was run?
Answer: 0.01 to 10 nM

Question: How did the EC50 turn out when COc1cccc(OC)c1-n1c(C2CCCC2)nc(=O)c(S(=O)(=O)c2ccc(C)cc2)c1O [Example 63, 2-cyclopentyl-1-(2,6-dimethoxyphenyl)-6-hydroxy-5-(4-methylbenzenesulfonyl)-1,4-dihydropyrimidin-4-one] was run?
Answer: 0.01 to 10 nM

Question: COc1cccc(OC)c1-n1c(C2CCCC2)nc(=O)c(S(=O)(=O)c2ccc(-c3ccnc(NC(=O)C4CC4)c3)cc2)c1O [Example 64, N-[4-(4-{[2-cyclopentyl-1-(2,6-dimethoxyphenyl)-6-hydroxy-4-oxo-1,4-dihydropyrimidin-5-yl]sulfonyl}phenyl)pyri-din-2-yl]cyclopropane-carboxamide] was tested. Which EC50 did it give?
Answer: 0.01 to 10 nM

Question: For CCCCc1nc(=O)c(S(=O)(=O)c2ccc(-c3ccnc(NC(=O)C4CC4)c3)cc2)c(O)n1-c1c(CC)cccc1CC [Example 65, N-[4-(4-{[2-butyl-1-(2,6-diethylphenyl)-6-hydroxy-4-oxo-1,4-dihydropyrimidin-5-yl]sulfonyl}phenyl)pyri-din-2-yl]cyclopropane-carboxamide], which EC50 is on record?
Answer: 0.01 to 10 nM

Question: With CCCCc1nc(=O)c(S(=O)(=O)c2ccc(C)cc2)c(O)n1-c1c(CC)cccc1CC [Example 66, 2-butyl-1-(2,6-diethylphenyl)-6-hydroxy-5-(4-methylbenzenesulfonyl)-1,4-dihydropyrimidin-4-one] as the compound, how does the EC50 read?
Answer: 0.01 to 10 nM

Question: With CCOCc1nc(=O)c(S(=O)(=O)c2ccc(C)cc2)c(O)n1-c1c(CC)cccc1CC [Example 67, 1-(2,6-diethylphenyl)-2-(ethoxymethyl)-6-hydroxy-5-(4-methylbenzenesulfonyl)-1,4-dihydropyrimidin-4-one] as the compound, how does the EC50 read?
Answer: 0.01 to 10 nM
